# Patent US20030175350A1, “Enteric preparations containing physiologically active peptides” (priority 2000, published 2003)
# Assays:
# [1] = Absorbability of compound (1) in cynomolgus monkey by oral administration of tablets; assay type: in vivo
# Text: Blood was periodically collected, plasma was isolated, and then plasma concentration of unchanged was quantified with HPLC.
# [2] = rat, in vivo, po; cited from earlier work
SMILES,Oral absorbability compared to rat and mouse [1],Tmax compared to rat and mouse [1],bioavailability [2] [%]
C[C@@H]1OC(=O)NC1C(=O)N[C@@H](Cc1cscn1)C(=O)N1CCC[C@H]1C (stereo partly drawn) [compound (1)],decreased absorbability,markedly delayed Tmax,–
CN1C(=O)C[C@@H](C(=O)N[C@@H](Cc2c[nH]cn2)C(=O)N2CCC[C@H]2C(N)=O)NC1=O [taltirelin],–,–,3.9
